Entries after “also recorded” stand apart in the source; their conditions may differ.
Assays:
[1] = test system: patient with pulmonary veno-occlusive disease (PVOD); experiment: Low-dose MTX treatment of one patient with pulmonary veno-occlusive disease; type: in vivo, human
Excerpt: Another possible co-drug is methotrexate. […] MTX is of particular interest because it is an inhibitor of the enzyme dihydrofolate reductase and thereby inhibits DNA, RNA and protein synthesis, which is the desired action in cancer treatment at high MTX doses. Norbert Voelkel has prescribed MTX for one patient with pulmonary veno-occlusive disease, which is a rare form of severe PH. […] The anti-inflammatory and immune system affecting action of MTX is accomplished with low doses. […] PVOD is a fatal and extremely rare PH disorder. […] Vasodilator-induced lung edema precludes the use of vasodilator drugs in these patients.

[2] = test system: Sugen/Hypoxia rats (SuHx) with established PAH; conditions: Farkas D. et al 2014; cited from earlier work
[3] = test system: silica-induced lung inflammation and fibrosis; conditions: by inhibiting T-helper 17 cell (TH 17); cited from earlier work
[4] = test system: angiogenesis; conditions: high dosage; through the induction of apoptosis; cited from earlier work
[5] = test system: colon cancer; conditions: by apoptosis and cellular senescence; cited from earlier work
[6] = test system: monocrotaline-induced pulmonary hypertension; conditions: through the bone morphogenetic protein signaling pathway; cited from earlier work
[7] = test system: rodent models of PH; conditions: in vivo; cited from earlier work
[8] = test system: Sugen/Hypoxia rats (SuHx) with established PAH; experiment: Sugen 5416/chronic hypoxia rat model of severe angio-obliterative PAH; type: in vivo
Description: Specifically, FIGS. 4A and B, which are from the paper which included Norbert F. Voelkel as a senior author, show the compared results of control rats, Sugen/Hypoxia rats (SuHx) with established PAH, and SuHx rats treated with TTM in an amount of 10 mg/kg every other day for 10 days. […] FIG. 5 provides the results, which compares the degree of obliteration of c-kit^+ expressing stem cells in the lung vessels of Sugen/Hypoxia rats (SuHx) treated with a vehicle (SuHx-vehicle) and Sugen/Hypoxia rats treated with TTM (SuHx-TTM) in an amount of 10 mg/kg every other day for 10 days. Third, copper plays a role in the alteration of genes of the cytochrome P450. The lung and, in particular, the lung vascular endothelial cells (EC) are involved in drug metabolism and the handling of toxic substances. It is known that cigarette smoke toxins highly up-regulate the expression of specific drug metabolizing genes, the genes of the cytochrome P450 super-family. There are 56 known cytochrome P450 genes coding for 56 isozymes. These enzymes metabolize 75% of all drugs in use, including all of the vasodilator drugs conventionally used for PAH treatment. These enzymes also are involved in cell growth and differentiation, in cholesterol and estrogen metabolism and for many years a role of these enzymes in the pathogenesis of cancers has been examined (in particular prostate, breast and lung cancer) (Kwapiszewska G et al, Circulation Research, submitted 2019). Norbert F. Voelkel discovered that the drug Sugen 5416, a component of the Sugen-induced rat models of angio-obliterative PAH, induces some of these cytochrome P450 isozyme genes more than 200-fold (Al-Husseini et al, Pulm Circ. 2015 March; 5(1); 101-116). […] Specifically, the vessel lumina are occluded in the not-treated animals (SuHx), whereas they have been reopened after the treated animals (SuHx+TTM) received 10 mg/kg TTM every other day for 10 days. […] The treatment lasted 3 weeks (21 days) with DEC being administered in an amount of 50 mg/kg daily treatment. Norbert F. Voelkel concludes that the anti-inflammatory drug DEC affects developing PAH and is partially effective once angio-obliterative PAH has been established.

[9] = test system: cytochrome P450 isozyme genes; experiment: Induction of cytochrome P450 isozyme genes by Sugen 5416; conditions: Al-Husseini et al, Pulm Circ. 2015
Excerpt: Third, copper plays a role in the alteration of genes of the cytochrome P450. The lung and, in particular, the lung vascular endothelial cells (EC) are involved in drug metabolism and the handling of toxic substances. It is known that cigarette smoke toxins highly up-regulate the expression of specific drug metabolizing genes, the genes of the cytochrome P450 super-family. There are 56 known cytochrome P450 genes coding for 56 isozymes. These enzymes metabolize 75% of all drugs in use, including all of the vasodilator drugs conventionally used for PAH treatment. These enzymes also are involved in cell growth and differentiation, in cholesterol and estrogen metabolism and for many years a role of these enzymes in the pathogenesis of cancers has been examined (in particular prostate, breast and lung cancer) (Kwapiszewska G et al, Circulation Research, submitted 2019). Norbert F. Voelkel discovered that the drug Sugen 5416, a component of the Sugen-induced rat models of angio-obliterative PAH, induces some of these cytochrome P450 isozyme genes more than 200-fold (Al-Husseini et al, Pulm Circ. 2015 March; 5(1); 101-116). […] Specifically, the vessel lumina are occluded in the not-treated animals (SuHx), whereas they have been reopened after the treated animals (SuHx+TTM) received 10 mg/kg TTM every other day for 10 days.

[10] = DEC study 2015 (Al Husseini et al)
[11] = after lung vascular disease established, 50 mg/kg daily for 3 weeks (21 days)
[12] = established severe PAH, treated for two weeks

CN(Cc1cnc2nc(N)nc(N)c2n1)c1ccc(C(=O)N[C@@H](CCC(=O)O)C(=O)O)cc1 [MTX, Methotrexate]
reversal of the PH [1]: did not reverse the PH | survival [1]: prolonged survival | progression of the disease (PVOD) ([1]; low dose MTX): arrested the proliferative progression; also recorded: halted

S=C(S)N1CCCC1 [pyrrolidine dithiocarbamate]
reversal of established angio-obliterative PAH [2]: reverse established angio-obliterative PAH

O=C(O)[C@H]1O[C@@H](Oc2cc3oc(-c4ccccc4)cc(=O)c3c(O)c2O)[C@H](O)[C@@H](O)[C@@H]1O [baicalin]
silica-induced lung inflammation and fibrosis [3]: alleviate | angiogenesis [4]: inhibit angiogenesis | colon cancer [5]: inhibit colon cancer | monocrotaline-induced pulmonary hypertension [6]: attenuate

O=c1c(O)c(-c2ccc(O)c(O)c2)oc2cc(O)cc(O)c12 [Quercetin]
vascular remodeling in rodent models of PH [7]: inhibit

CCN(CC)C(=O)N1CCN(C)CC1 [DEC, diethylcarbamazine]
muscularization of pulmonary arterioles [8, 10]: blunted | number of fully obliterated lung vessels [8, 10]: reduced | occluded vessels (FIGS. 8A-C) ([8]; SuHx+DEC vs SuHx): reopens occluded vessels | degree of PAH [8, 11]: reduced | degree of perivascular inflammation [8, 11]: reduced | number of obliterated arterioles [8, 11]: reduced

[NH4+].[NH4+].[SH-].[SH-].[S]=[Mo]=[S] [TTM, ammonium tetrathiomolybdate]
expression of integrin protein alpha v beta 3 in lung (FIGS. 4A, B) ([8]; 10 mg/kg every other day for 10 days): reduced; also recorded: normalized | lung vessel lumina / arterioles (immunohistochemistry, FIG. 2) ([8]; 10 mg/kg every other day for 10 days, intraperitoneal, SuHx+TTM vs SuHx): reopened; also recorded: reopens lung arterioles | number of c-kit+ precursor cells in the lung vascular lesions (FIG. 5) ([8]; 10 mg/kg every other day for 10 days, vs SuHx-vehicle): reduced the number of c-kit+ precursor cells | expression of anoikis marker protein BIM in lung tissue (FIG. 3) ([8]; SuHx-TTM vs SuHx, referenced to beta-actin): upregulated | anoikis, evidenced by cells expressing the marker BIM ([8]; TTM-treated SuHx rats): induced anoikis | occluded lung vessels [8, 12]: reopening of occluded lung vessels | pulmonary arterial pressure [8, 12]: cut the pulmonary arterial pressure in half | reversal of established severe PAH [8, 12]: reversed the PAH

Cc1cc(C)c(/C=C2\C(=O)Nc3ccccc32)[nH]1 [Sugen 5416]
induction of some cytochrome P450 isozyme genes [9]: more than 200 fold

From patent publication US12268710B2, “Method of treating severe forms of pulmonary hypertension” (ReversPAH LLC, priority 2019, dated 2025)
